This is an account of results in paper PMC12279247, “Inhibition of RACK1‐Mediated NLRP3 Oligomerization (Active Conformation) Ameliorates Acute Respiratory Distress Syndrome” (Advanced Science, 2025).

In the assay the target is T1, recombinant human RACK1 protein (Homo sapiens, UniProt P63244).
T1 construct: commercial recombinant protein
Description: surface plasmon resonance, bigelovin loaded on CM5 chip, RACK1 flowed over. It counts as binding. As to conditions: PBS pH 7.4, 0.05% Tween-20, 22 °C; covalent, Cys168. In general terms: Surface plasmon resonance follows binding to a sensor surface in real time, without labels.

Structures are written as SMILES.

For `C=C1C(=O)O[C@H]2C[C@@H](C)[C@@H]3C=CC(=O)[C@@]3(C)[C@@H](OC(C)=O)[C@H]12` [bigelovin], the dissociation constant Kd (commonly the equilibrium constant for the complex coming apart) was found to be 240 nM.
